Reference: ChEMBL document CHEMBL1909046, “DrugMatrix in vitro pharmacology data”

Tests used:
Thromboxane-A synthase = biological target: T1, Thromboxane-A synthase (Homo sapiens, UniProt P24557); assay: biochemical; type: tissue-based, Platelet; settings: platelet;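 note: enzyme inhibition assay with PGH2 supplied as substrate; in other assays of this panel Not Active means under 50% inhibition at 10 µM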
T1 sequence (P24557 whole entry): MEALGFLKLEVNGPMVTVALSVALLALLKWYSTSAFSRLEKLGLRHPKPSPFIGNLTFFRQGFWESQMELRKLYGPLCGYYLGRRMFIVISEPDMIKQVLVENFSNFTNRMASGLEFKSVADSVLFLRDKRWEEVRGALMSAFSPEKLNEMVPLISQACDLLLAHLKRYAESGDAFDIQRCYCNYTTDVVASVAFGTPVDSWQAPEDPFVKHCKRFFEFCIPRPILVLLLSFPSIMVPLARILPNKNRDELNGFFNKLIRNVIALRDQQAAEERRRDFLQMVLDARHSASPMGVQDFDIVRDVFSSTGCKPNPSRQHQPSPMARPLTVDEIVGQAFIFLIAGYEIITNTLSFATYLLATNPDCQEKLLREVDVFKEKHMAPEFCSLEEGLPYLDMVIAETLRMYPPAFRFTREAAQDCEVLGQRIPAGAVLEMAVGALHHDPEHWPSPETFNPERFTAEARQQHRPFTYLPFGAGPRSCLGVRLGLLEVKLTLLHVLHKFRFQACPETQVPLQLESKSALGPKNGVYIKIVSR

[1] = biological target: T2, Neuropeptide Y receptor type 1 (Homo sapiens, UniProt P25929); type: cell membranes, Membrane; settings: sk-n-mc; note: in other assays of this panel Not Active means under 50% inhibition at 10 µM
T2 sequence (P25929 whole entry): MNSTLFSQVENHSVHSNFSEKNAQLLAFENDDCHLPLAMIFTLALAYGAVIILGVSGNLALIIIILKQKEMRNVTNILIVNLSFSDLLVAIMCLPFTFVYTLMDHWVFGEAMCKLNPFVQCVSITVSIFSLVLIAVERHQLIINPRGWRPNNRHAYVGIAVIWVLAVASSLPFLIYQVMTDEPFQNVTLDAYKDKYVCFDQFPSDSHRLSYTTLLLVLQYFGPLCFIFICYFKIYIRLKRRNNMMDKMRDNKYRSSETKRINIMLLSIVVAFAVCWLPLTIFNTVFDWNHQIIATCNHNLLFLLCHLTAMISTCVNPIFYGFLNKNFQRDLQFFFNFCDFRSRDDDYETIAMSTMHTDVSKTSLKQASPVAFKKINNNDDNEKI

Cytochrome P450 3A4 = Cytochrome P450 3A4 (Homo sapiens, UniProt P08684); settings: bti-tn-5b1-4; note: in other assays of this panel Not Active means under 50% inhibition at 10 µM
Cytochrome P450 3A4, sequence (P08684 whole entry): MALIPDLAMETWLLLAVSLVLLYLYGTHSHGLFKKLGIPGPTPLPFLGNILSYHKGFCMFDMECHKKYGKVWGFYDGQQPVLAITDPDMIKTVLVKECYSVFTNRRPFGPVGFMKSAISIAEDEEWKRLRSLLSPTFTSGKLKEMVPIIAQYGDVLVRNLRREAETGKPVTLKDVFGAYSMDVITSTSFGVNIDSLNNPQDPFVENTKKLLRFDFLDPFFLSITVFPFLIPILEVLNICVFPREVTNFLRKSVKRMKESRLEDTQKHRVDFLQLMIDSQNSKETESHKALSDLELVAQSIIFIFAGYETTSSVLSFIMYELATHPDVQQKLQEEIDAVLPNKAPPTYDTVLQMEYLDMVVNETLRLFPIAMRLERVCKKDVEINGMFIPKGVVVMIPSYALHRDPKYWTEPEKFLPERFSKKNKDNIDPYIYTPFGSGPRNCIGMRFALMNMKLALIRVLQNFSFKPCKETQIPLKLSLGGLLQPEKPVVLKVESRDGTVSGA

[2] = biological target: T3, Alpha-2C adrenergic receptor (Homo sapiens, UniProt P18825); assay: DRUGMATRIX: Adrenergic Alpha-2C radioligand binding (ligand: [3H] MK-912); type: cell membranes, Sf9, Membrane
T3 sequence (P18825 whole entry): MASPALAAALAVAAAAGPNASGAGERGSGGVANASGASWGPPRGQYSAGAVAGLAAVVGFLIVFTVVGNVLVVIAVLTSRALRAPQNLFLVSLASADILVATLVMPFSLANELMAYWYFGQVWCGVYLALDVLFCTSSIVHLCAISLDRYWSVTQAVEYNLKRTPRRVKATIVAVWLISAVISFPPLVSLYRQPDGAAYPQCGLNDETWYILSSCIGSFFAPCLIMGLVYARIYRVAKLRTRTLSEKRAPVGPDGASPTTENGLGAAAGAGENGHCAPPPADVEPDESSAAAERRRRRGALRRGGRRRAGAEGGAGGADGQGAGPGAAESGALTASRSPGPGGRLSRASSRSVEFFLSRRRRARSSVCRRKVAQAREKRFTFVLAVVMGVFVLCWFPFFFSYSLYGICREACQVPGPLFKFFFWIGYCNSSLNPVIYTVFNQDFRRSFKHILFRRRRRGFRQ

[3] = biological target: Tyrosine-protein kinase Lck (Homo sapiens, UniProt P06239); assay: DRUGMATRIX: Protein Tyrosine Kinase, LCK enzyme inhibition (substrate: Poly(Glu:Tyr)); type: cell-based, Insect cells; settings: insect cells; Not Active = under 50% inhibition at 10 µM
Tyrosine-protein kinase Lck, sequence (P06239 whole entry): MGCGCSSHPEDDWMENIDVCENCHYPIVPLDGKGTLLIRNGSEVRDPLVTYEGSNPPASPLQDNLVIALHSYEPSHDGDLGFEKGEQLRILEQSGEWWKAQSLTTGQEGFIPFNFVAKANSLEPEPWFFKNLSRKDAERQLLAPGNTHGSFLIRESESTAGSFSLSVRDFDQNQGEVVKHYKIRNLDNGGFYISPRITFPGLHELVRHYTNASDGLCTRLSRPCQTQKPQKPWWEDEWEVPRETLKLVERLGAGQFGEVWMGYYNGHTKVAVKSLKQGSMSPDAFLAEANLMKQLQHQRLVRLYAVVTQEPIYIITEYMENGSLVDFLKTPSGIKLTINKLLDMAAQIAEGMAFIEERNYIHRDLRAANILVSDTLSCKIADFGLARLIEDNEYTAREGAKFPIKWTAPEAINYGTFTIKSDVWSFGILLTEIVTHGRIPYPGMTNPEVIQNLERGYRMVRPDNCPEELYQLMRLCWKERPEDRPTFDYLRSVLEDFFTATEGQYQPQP

[4] = biological target: Beta-1 adrenergic receptor (Homo sapiens, UniProt P08588); assay: DRUGMATRIX: Adrenergic beta1 radioligand binding (ligand: [125I] Cyanopindolol); type: cell membranes, CHO-K1, Membrane; settings: Not Active = under 50% inhibition at 10 µM
Beta-1 adrenergic receptor, sequence (P08588 whole entry): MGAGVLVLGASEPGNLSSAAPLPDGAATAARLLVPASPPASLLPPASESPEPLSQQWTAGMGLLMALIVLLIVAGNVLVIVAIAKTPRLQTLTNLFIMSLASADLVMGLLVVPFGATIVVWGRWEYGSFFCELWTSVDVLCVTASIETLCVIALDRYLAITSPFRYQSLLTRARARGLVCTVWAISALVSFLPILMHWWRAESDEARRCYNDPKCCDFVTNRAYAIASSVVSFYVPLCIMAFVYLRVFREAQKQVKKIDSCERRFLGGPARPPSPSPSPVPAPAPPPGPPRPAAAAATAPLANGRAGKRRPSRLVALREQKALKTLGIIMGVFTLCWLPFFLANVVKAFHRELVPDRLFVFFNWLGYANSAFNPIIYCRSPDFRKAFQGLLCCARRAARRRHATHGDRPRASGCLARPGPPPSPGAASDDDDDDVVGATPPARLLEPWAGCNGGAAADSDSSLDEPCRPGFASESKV

Molecule	IC50 (Thromboxane-A synthase)	IC50 [1]	IC50 (Cytochrome P450 3A4)	Ki (Cytochrome P450 3A4)	IC50 ([2]; sf9)	IC50 [3]	IC50 ([4]; cho-k1)	Ki (Thromboxane-A synthase)	Ki [1]	Ki ([2]; sf9)	Ki [3]	Ki ([4]; cho-k1)	IC50 ([4]; read-out: IC50)	Ki ([4]; read-out: Ki)	IC50 ([2]; read-out: IC50)	Ki ([2]; read-out: Ki)
C[C@@H]1O[C@@H](O[C@@H]2C=C3CC[C@@H]4[C@H](CC[C@]5(C)[C@@H](c6ccc(=O)oc6)CC[C@]45O)[C@@]3(C)CC2)[C@H](O)[C@H](O)[C@H]1O [PROSCILLARIDIN]	Not Active	Not Active	Not Active	Not Active	Not Active	Not Active	Not Active	–	–	–	–	–	–	–	–	–
CN(C)[C@@H]1C(O)=C(C(N)=O)C(=O)[C@@]2(O)C(O)=C3C(=O)c4c(O)ccc(Cl)c4[C@@](C)(O)[C@H]3C[C@@H]12 [CHLORTETRACYCLINE]	Not Active	Not Active	Not Active	Not Active	Not Active	Not Active	Not Active	–	–	–	–	–	–	–	–	–
Nc1ccn([C@@H]2O[C@H](CO)[C@@H](O)[C@@H]2O)c(=O)n1 [CYTARABINE]	Not Active	Not Active	Not Active	Not Active	Not Active	Not Active	Not Active	–	–	–	–	–	–	–	–	–
NYSTATIN	Not Active	Not Active	Not Active	Not Active	Not Active	Not Active	Not Active	Not Active	Not Active	Not Active	Not Active	Not Active	–	–	–	–
Cc1cc2c(OCC(CNC(C)(C)C)OC(=O)c3ccccc3)cccc2[nH]1 (centres undefined) [BOPINDOLOL]	Not Active	Not Active	Not Active	Not Active	Not Active	Not Active	–	–	–	–	–	–	0.047 µM	0.027 µM	–	–
CC(=O)Oc1ccc(C(c2ccc(OC(C)=O)cc2)c2ccccn2)cc1 [BISACODYL]	Not Active	Not Active	Not Active	Not Active	Not Active	Not Active	Not Active	–	–	–	–	–	–	–	–	–
C[C@@H](CO)NC(=O)[C@@H]1C=C2c3cccc4[nH]cc(c34)C[C@H]2N(C)C1 [ERGONOVINE]	Not Active	Not Active	Not Active	Not Active	Not Active	Not Active	Not Active	–	–	–	–	–	–	–	–	–
CC(=O)O[C@H]1C(=O)[C@@]2(C)[C@H]([C@H](OC(=O)c3ccccc3)[C@]3(O)C[C@H](OC(=O)[C@H](O)[C@@H](NC(=O)c4ccccc4)c4ccccc4)C(C)=C1C3(C)C)[C@]1(OC(C)=O)CO[C@@H]1C[C@@H]2O [PACLITAXEL]	Not Active	Not Active	Not Active	Not Active	Not Active	Not Active	Not Active	–	–	–	–	–	–	–	–	–
Nc1ccn([C@@H]2O[C@H](CO)[C@@H](O)C2(F)F)c(=O)n1 [GEMCITABINE]	Not Active	Not Active	Not Active	Not Active	Not Active	Not Active	Not Active	–	–	–	–	–	–	–	–	–
CCC1(CCC(C)C)C(=O)NC(=O)NC1=O [AMOBARBITAL]	Not Active	–	Not Active	Not Active	Not Active	Not Active	Not Active	–	Not Active	–	–	–	–	–	–	–
O=C(O)c1cccnc1Nc1cccc(C(F)(F)F)c1 [NIFLUMIC ACID]	Not Active	Not Active	Not Active	Not Active	Not Active	Not Active	Not Active	–	–	–	–	–	–	–	–	–
Cn1c(=O)c2[nH]cnc2n(C)c1=O.Cn1c(=O)c2[nH]cnc2n(C)c1=O.NCCN [AMINOPHYLLINE]	Not Active	Not Active	Not Active	Not Active	Not Active	Not Active	Not Active	–	–	–	–	–	–	–	–	–
GENTAMICIN	Not Active	Not Active	Not Active	Not Active	Not Active	Not Active	Not Active	Not Active	Not Active	Not Active	Not Active	Not Active	–	–	–	–
C=CCc1ccc(O)c(OC)c1 [EUGENOL]	Not Active	Not Active	Not Active	Not Active	Not Active	Not Active	Not Active	–	–	–	–	–	–	–	–	–
COc1ccc2[nH]cc(CCNC(C)=O)c2c1 [MELATONIN]	Not Active	Not Active	Not Active	Not Active	Not Active	Not Active	Not Active	–	–	–	–	–	–	–	–	–
O=C(N/N=C/c1ccc([N+](=O)[O-])o1)c1cc([N+](=O)[O-])cc([N+](=O)[O-])c1O [NIFURSOL]	Not Active	Not Active	Not Active	Not Active	Not Active	Not Active	Not Active	–	–	–	–	–	–	–	–	–
CC(C)NNC(=O)c1ccncc1 [IPRONIAZID]	Not Active	Not Active	Not Active	Not Active	Not Active	Not Active	Not Active	–	–	–	–	–	–	–	–	–
CC(C(=O)O)c1cccc(Oc2ccccc2)c1 (centres undefined) [FENOPROFEN]	Not Active	Not Active	Not Active	Not Active	Not Active	Not Active	Not Active	–	–	–	–	–	–	–	–	–
O=C(O)CCNC(=O)c1ccccc1 [BETAMIPRON]	Not Active	Not Active	Not Active	Not Active	Not Active	Not Active	Not Active	–	–	–	–	–	–	–	–	–
C#C[C@]1(OC(C)=O)CC[C@H]2[C@@H]3CCC4=C[C@@H](OC(C)=O)CC[C@@H]4[C@H]3CC[C@@]21C [ETHYNODIOL DIACETATE]	Not Active	Not Active	Not Active	Not Active	Not Active	Not Active	Not Active	–	–	–	–	–	–	–	–	–
Oc1cccc(O)c1O [PYROGALLOL]	Not Active	Not Active	Not Active	Not Active	Not Active	Not Active	Not Active	–	–	–	–	–	–	–	–	–
O=C/C=C/c1ccccc1	Not Active	Not Active	Not Active	Not Active	Not Active	Not Active	Not Active	–	–	–	–	–	–	–	–	–
C[n+]1ccc(-c2cc[n+](C)cc2)cc1.[Cl-].[Cl-] [PARAQUAT DICHLORIDE]	Not Active	Not Active	Not Active	Not Active	Not Active	Not Active	Not Active	–	–	–	–	–	–	–	–	–
CCCN(CCC)S(=O)(=O)c1ccc(C(=O)O)cc1 [PROBENECID]	Not Active	Not Active	Not Active	Not Active	Not Active	Not Active	Not Active	–	–	–	–	–	–	–	–	–
C#CC1(O)CC[C@H]2[C@@H]3CCC4=CC(=O)CC[C@@H]4[C@H]3CC[C@@]21CC (some centres undefined) [NORGESTREL]	Not Active	Not Active	Not Active	Not Active	Not Active	Not Active	Not Active	–	–	–	–	–	–	–	–	–
CC[C@H]1CN2CCc3cc(OC)c(OC)cc3[C@@H]2C[C@@H]1C[C@H]1NCCc2cc(OC)c(OC)cc21 [EMETINE]	Not Active	Not Active	Not Active	Not Active	–	Not Active	Not Active	–	–	–	–	–	–	–	0.182 µM	0.026 µM
